Measurements taken from article PMC10045534, “Preparation and Evaluation of 6-Gingerol Derivatives as Novel Antioxidants and Antiplatelet Agents” (Antioxidants, 2023).
Like-named read-outs stand apart in the source and are kept apart here.

Assays:
[1] = Peroxynitrite scavenging (pyrogallol red); details: % inhibition at 500 µM; mean ± SEM, n = 3
Protocol: Peroxynitrite was synthesised by a continuous flow system using syringe pumps as published previously. Briefly, an acidic solution of hydrogen peroxide (0.6 M H2O2, 0.7 M HCl) was pumped to a junction alongside of sodium nitrite solution (0.6 M) at a flow rate of 1.5 mL/min. After passing 10 cm of tubing, it was mixed with a sodium hydroxide solution (1.5 M), also pumped at 1.5 mL/min. The resulting peroxynitrite solution was a bright yellow colour. The tubing around the reaction was submerged in ice. The concentration of the solution was determined by spectrophotometry and was adjusted to 30 mM with 0.1 M NaOH solution.
In a 96-well microplate 245 µL of pyrogallol red (100 µM final concentration, dissolved in 0.1 M glycine buffer) was mixed with 50 µL of sample (0.5 mM final concentration, dissolved in DMSO) and 5 µL ONOO^– solution (500 µM final concentration, freshly prepared). After mixing and keeping it at room temperature for 30 min the absorbance was measured at 550 nm using a FluoStar Optima plate reader (software version 2.20R2, BMG Labtech, Ortenberg, Germany).

[2] = target: T1, xanthine oxidase (XO) (Bos taurus, UniProt P80457); experiment: Xanthine oxidase inhibition, spectrophotometric; assay type: biochemical; details: for XO Inhibition (%): % inhibition at 100 µM, mean ± SEM, n = 3; for inhibition at 100 µM: read-out: XO Inhibition (%)
T1 construct: purchased Sigma (Merck KGaA)
T1 sequence (P80457 2-1332 limits assumed): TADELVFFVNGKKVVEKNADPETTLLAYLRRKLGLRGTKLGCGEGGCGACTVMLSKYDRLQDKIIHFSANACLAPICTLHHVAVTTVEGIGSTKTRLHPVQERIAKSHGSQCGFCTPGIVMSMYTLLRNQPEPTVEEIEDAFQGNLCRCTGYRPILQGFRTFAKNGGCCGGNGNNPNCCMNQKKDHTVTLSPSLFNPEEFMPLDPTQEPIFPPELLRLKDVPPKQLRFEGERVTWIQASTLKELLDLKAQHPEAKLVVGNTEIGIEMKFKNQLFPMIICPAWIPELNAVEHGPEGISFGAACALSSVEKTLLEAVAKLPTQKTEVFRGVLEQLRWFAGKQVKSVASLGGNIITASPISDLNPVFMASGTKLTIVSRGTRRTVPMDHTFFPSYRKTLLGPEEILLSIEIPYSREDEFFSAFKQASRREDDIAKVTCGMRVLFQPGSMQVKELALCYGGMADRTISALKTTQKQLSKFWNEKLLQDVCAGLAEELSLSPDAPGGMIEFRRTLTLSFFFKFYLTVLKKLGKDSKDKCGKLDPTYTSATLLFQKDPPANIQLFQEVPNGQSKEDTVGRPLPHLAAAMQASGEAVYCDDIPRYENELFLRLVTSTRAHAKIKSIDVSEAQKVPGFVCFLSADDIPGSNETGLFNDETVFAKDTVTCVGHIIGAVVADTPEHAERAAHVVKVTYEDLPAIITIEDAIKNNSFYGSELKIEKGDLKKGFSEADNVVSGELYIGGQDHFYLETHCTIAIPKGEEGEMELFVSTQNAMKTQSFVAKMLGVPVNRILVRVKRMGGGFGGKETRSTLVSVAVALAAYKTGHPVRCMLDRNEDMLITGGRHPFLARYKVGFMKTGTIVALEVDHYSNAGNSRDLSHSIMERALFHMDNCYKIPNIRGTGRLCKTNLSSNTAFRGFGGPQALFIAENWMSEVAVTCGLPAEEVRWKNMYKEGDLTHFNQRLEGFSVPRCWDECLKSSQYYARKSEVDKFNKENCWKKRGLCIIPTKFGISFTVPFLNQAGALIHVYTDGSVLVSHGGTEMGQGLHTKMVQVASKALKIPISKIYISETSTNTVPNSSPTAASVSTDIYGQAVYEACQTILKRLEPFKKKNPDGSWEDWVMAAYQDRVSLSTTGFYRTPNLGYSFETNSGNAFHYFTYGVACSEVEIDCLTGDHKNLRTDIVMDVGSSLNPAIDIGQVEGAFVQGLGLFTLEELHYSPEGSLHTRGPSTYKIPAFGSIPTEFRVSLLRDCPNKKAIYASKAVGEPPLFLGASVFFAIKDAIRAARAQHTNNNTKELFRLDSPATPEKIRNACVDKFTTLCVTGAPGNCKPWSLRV
Protocol: The xanthine oxidase (XO) inhibitory activity of the compounds was determined using continuous spectrophotometric rate based on a modified protocol of Sigma. […]. In a 96-well plate, the final reaction mixture consisted of 10 µL of sample (dissolved in DMSO, […] stock solution, 100 µM final), 100 µL of xanthine solution (0.15 mM, pH = 7.4), 140 µL of buffer (potassium phosphate, pH = 7.5) and 50 µL of XO (0.2 units/mL). When measuring the enzyme activity, control buffer was used in place of the sample. Allopurinol was applied as a control. The reaction was initiated by the automatic addition of 50 µL of XO solution. The absorbance of XO-induced uric acid production from xanthine was measured at 290 nm for 3 min in a 96-well plate on a BMG Labtech FluoStar Optima plate reader. The inhibitory percentage values were calculated by using Graph Pad Prism 8.0 (La Jolla, CA, USA).

[3] = DPPH free radical scavenging assay; details: for IC50: 30 min, room temperature, MeOH, mean ± SEM, n = 2, read-out: DDPH IC50
Protocol: (§1) All bioactivity data processing, including the calculation of inhibition percentage, mean and corresponding standard error of the mean (SEM), and IC50 values, was performed by GraphPad Prism 8.0 (La Jolla, CA, USA). IC50 values were calculated from the sigmoidal dose–response curves obtained by the log(inhibitor) vs. response and variable slope (DPPH assay) or the log(inhibitor) vs. normalised response and variable slope nonlinear regression model. On the results obtained, no statistical evaluation was performed; instead, differences greater than two-fold were considered relevant. Plotting of the antiplatelet and COX-1 inhibitory IC50 values and the linear regression of the data was performed by Microsoft Excel.
DPPH (1,10-diphenyl-2-picrylhydrazyl) was purchased from Thermo Fisher Scientific. DPPH free radical scavenging assay was performed with some modifications based on the method by previous study. Briefly, in a 96-well microplate, microdilutions of samples (100 µL, starting from 200 µM in HPLC grade MeOH) were made and 100 µL of DPPH reagent (100 µM in MeOH) was added. After 30 min at room temperature in the dark, the absorbance was measured at 550 nm using a FluoStar Optima plate reader (software version 2.20R2, BMG Labtech Ortenberg, Germany). For the blank control, MeOH was used. The scavenging activity was calculated as Inhibition (%) = (A0 − As)/A0 × 100, and IC50 values were calculated by GraphPad Prism 8.0 (La Jolla, CA, USA).

[4] = Oxygen radical absorbance capacity (ORAC); details: 1 µM sample; mean ± SEM, n = 3
Protocol: AAPH ((2,20-Azobis(2-methyl-propionamidine) dihydrochloride) free radical and Trolox standard were purchased from Sigma-Aldrich Hungary. Fluorescein was purchased from Fluka Analytical, Tokyo, Japan. ORAC assay was carried out In a 96-well microplate based on the method from previous study. Briefly, 20 µL of the samples (1 µM final concentration, dissolved in phosphate buffer, pH = 7.4, containing 1% MeOH) were mixed with 60 µL of AAPH (12 mM final concentration, dissolved in phosphate buffer, pH = 7.4) and 120 µL of fluorescein solution (70 nM final concentration, dissolved in phosphate buffer), then the fluorescence was measured (excitation at λ = 485 nm, and emission at λ = 520 nm) through 3 h with 1.5-min cycle intervals with a BMG Labtech FluoStar Optima plate-reader. All experiments were carried out in triplicate, and Trolox was used as standard. The antioxidant capacity is expressed as Trolox Equivalent (TE), as calculated using GraphPad Prism 8.0 (La Jolla, CA, USA).

[5] = tested on: washed human platelets; experiment: Arachidonic acid-induced platelet aggregation (turbidimetric aggregometer); assay type: cell-based; details: washed human platelets treated 3 min, then arachidonic acid (100 μM), mean ± SEM, n = 3, read-out: Antiplatelet IC50
Protocol: as §1
Human platelet suspension (3 × 10^8/mL in Tyrode’s buffer) was prepared as previously described. The protocol for this study was approved by the institutional review board of Kaohsiung Medical University Hospital (Kaohsiung City, Taiwan). Platelets pre-treated with DMSO (vehicle control) or test compounds were stimulated with arachidonic acid (AA), and platelet aggregation was measured using turbidimetric aggregometer (Chrono-Log Co., Havertown, PA, USA) at 37 °C under stirring conditions (1200 rpm).

[6] = target: T2, COX-1 enzyme (Ovis aries, UniProt P05979); experiment: COX-1 inhibitor screening kit, fluorometric (BioVision K548-100); assay type: biochemical; details: for LLE(COX-1): LLE = pIC50 − logPpredicted; for IC50: mean ± SEM, n = 2
T2 construct: purchased BioVision (via VWR International Kft.) K548-100
T2 sequence (P05979 25-600): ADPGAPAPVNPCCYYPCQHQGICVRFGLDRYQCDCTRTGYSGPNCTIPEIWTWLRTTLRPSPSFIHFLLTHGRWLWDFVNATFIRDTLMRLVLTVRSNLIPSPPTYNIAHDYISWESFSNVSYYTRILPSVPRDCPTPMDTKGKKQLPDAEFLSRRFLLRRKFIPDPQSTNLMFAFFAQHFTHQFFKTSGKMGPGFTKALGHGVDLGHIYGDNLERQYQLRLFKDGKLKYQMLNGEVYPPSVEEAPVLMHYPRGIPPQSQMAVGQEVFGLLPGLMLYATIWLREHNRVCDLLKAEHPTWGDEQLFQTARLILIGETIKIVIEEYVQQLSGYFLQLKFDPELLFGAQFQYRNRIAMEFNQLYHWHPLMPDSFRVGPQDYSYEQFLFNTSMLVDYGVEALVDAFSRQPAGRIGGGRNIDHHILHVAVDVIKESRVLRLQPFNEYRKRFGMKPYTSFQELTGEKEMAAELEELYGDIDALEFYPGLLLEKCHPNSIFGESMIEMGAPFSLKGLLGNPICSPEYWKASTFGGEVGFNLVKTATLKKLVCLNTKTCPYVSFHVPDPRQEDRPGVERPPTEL
Protocol: COX-1 inhibitory activity was tested based on the fluorometric method as described in BioVision’s COX-1 inhibitor screening kit leafkit (K548-100, BioVision, CA, USA). Sample solutions were prepared by dissolving in DMSO and subsequently buffer, to get desired concentrations. In a 96-well white plate (655101, F-bottom, Grenier bio-one, Germany), 80 µL reaction mix (containing 76 µL assay buffer, 1 µL COX Probe, 2 µL COX cofactor, and 1 µL COX-1 enzyme) was added to 10 µL sample solution, DMSO and assay buffer to get test wells assigned for sample screen (S), negative control (N) and blank, respectively. An aliquot of 10 µL of arachidonic/NaOH solution was added to each well using a multi-channel pipette to initiate the reaction at the same time, and the fluorescence of each well was measured kinetically at Ex/Em 550/610 nm, at 25OC for 10 min using a FluoStar Optima plate reader (BMG Labtech, Ortenberg, Germany). The COX inhibitory activity of SC560, a standard inhibitor, was also determined.
The change in fluorescence between two points, T1 and T2 were determined, and relative inhibition was calculated according to the following equation:% Inhibition = (ΔN − ΔS)/ΔN × 100 (1) where N is the absorbance of the negative control, and S is that of the sample.
Dose-effect studies on the compounds were used to determine the concentration that inhibits 50% of the enzyme activity. The sigmoidal dose–response model was obtained by using the software GraphPad Prism 8.0 (La Jolla, CA, USA), and these were used to determine the IC50 values of the compounds.

[7] = Kinetic aqueous solubility in PBS pH 7.4; assay type: physicochemical; details: PBS (pH 7.4), 37 °C, pH 7.4, aqueous buffer, kinetic from dmso stock, after 2 h at 37 °C in PBS, 500 μM target concentration, mean ± SEM, n = 3
Protocol: Preparative purifications over RP-HPLC were performed on a Kinetex XB C18 (5 μm, 250 × 21.2 mm) column on an Armen Spot Prep II integrated HPLC purification system (Gilson, Middleton, WI, USA) with dual-wavelength detection, with an adequately chosen combination of acetonitrile–water, and a flow rate of 15 mL/min. The purity of the compounds obtained was determined by RP-HPLC analyses on a system of two Jasco PU 2080 pumps, a Jasco AS-2055 Plus intelligent sampler connected to a JASCO LC-Net II/ADC equipped with a Jasco MD-2010 Plus PDA detector (Jasco International Co. Ltd., Hachioji, Tokyo, Japan) utilizing a Kinetex C-18 (5 μm, 250 × 4.6 mm) column (Phenomenex Inc., Torrance, CA, USA) and applying a gradient of 30%–100% aqueous AcN in 30 min followed by 100% ACN for 10 min with a flow rate of 1 mL/min. Analysis of samples from the PAMPA and kinetic solubility assays was performed the same way, by using 3-point calibrations and integrating each compound at its UV absorption maximum.
In a 96-well polypropylene plate (Greiner Bio-One, Kremsmünster, Austria), 15 μL stock solutions were added to 285 μL PBS (pH 7.4) to make starting donor solution with 500 μM as target concentration. For each sample, 3 replicates were measured. The samples were covered and shaken at 37 °C, 300 rpm for 2 h (Heidolph Titramax 1000, Heidolph Instruments GmbH & Co. KG, Schwabach, Germany). After that, each sample was transferred into a filter plate (MSSBLPC, Multiscreen Filter plate, Merck kGaA) and filtered (Vaccum Manifold, Merck kGaA, Darmstadt, Germany). The filtrates were transferred into HPLC vials, and acetonitrile (AcN) was added to aliquot to avoid precipitation. The final solvent ratio was AcN:PBS (70:30). Filtrate concentration was determined by HPLC-UV (see Section 2.1) using 3-points calibration.

CCCCCC(=O)CC(=O)/C=C/c1ccc(O)c(OC)c1 [Compound 11, 6-dehydrogingerdione]
ONOO^– Scavenging (%) [1]: <5.0% | XO Inhibition (%) [2]: <5.0% | IC50 [3]: 9.04 ± 0.19 µM | ORAC TE [4]: 1.98 ± 0.12 Trolox equivalents (TE) | IC50 [5]: 4.1 ± 1 µM | LLE(COX-1) [6]: 1.14 | IC50 [6]: 23.1 ± 9.3 µM

CCCCC/C(O)=C/C(=O)/C=C/c1ccc(O)c(OC)c1 [Compound 11A]
solubility kinetic at 2 h [7]: 54 ± 1.3 µM

CCCCCC(=O)/C=C(O)/C=C/c1ccc(O)c(OC)c1 [Compound 11B]
solubility kinetic at 2 h [7]: 54 ± 1.3 µM

CCCCCC(=O)CC(=O)/C=C/c1ccc(O)c(OC)c1 [Compound 11C]
solubility kinetic at 2 h [7]: 54 ± 1.3 µM

CCCCCC(=O)CC(=O)/C=C/c1ccc(O)cc1 [Compound 12, (E)-1-(4-hydroxyphenyl)dec-1-ene-3,5-dione]
ONOO^– Scavenging (%) [1]: <5.0% | inhibition at 100 µM [2]: < 5% | DPPH scavenging activity (in words) [3]: inactive | IC50 [3]: > 200 µM | ORAC TE [4]: 2.89 ± 0.49 Trolox equivalents (TE) | IC50 ([5]; Platelet, 0.05 h): 71.7 ± 28.3 µM | IC50 [6]: > 200 µM

CCCCC/C(O)=C/C(=O)/C=C/c1ccc(O)cc1 [Compound 12A]
solubility kinetic at 2 h [7]: 15.6 ± 0.1 µM

CCCCCC(=O)/C=C(O)/C=C/c1ccc(O)cc1 [Compound 12B]
solubility kinetic at 2 h [7]: 15.6 ± 0.1 µM

CCCCCC(=O)CC(=O)/C=C/c1ccc(O)cc1 [Compound 12C]
solubility kinetic at 2 h [7]: 15.6 ± 0.1 µM

CCCCCC(=O)CC(=O)CCc1ccc(O)c(OC)c1 [Compound 13, 6-gingerdione]
ONOO^– Scavenging (%) [1]: <5.0% | XO Inhibition (%) [2]: <5.0% | IC50 [3]: 10.9 ± 0.69 µM | ORAC TE [4]: 2.60 ± 0.06 Trolox equivalents (TE) | IC50 [5]: 3.6 ± 0.9 µM | LLE(COX-1) [6]: 1.53 | IC50 [6]: 11.8 ± 5.4 µM

CCCCC/C(O)=C/C(=O)CCc1ccc(O)c(OC)c1 [Compound 13A]
solubility kinetic at 2 h [7]: 315 ± 23.7 µM

CCCCCC(=O)/C=C(\O)CCc1ccc(O)c(OC)c1 [Compound 13B]
solubility kinetic at 2 h [7]: 315 ± 23.7 µM

CCCCCC(=O)CC(=O)CCc1ccc(O)c(OC)c1 [Compound 13C]
solubility kinetic at 2 h [7]: 315 ± 23.7 µM

Oc1ncnc2[nH]ncc12 [allopurinol, reference compound]
inhibition at 100 µM [2]: 98.8 ± 0.11%
